Assay results: patent publication US20240041842A1, “PHARMACEUTICAL COMPOSITION FOR INHIBITING CANCER METASTASIS” (INDUSTRY-ACADEMIC COOPERATION FOUNDATION, YONSEI UNIVERSITY, priority 2021, published 2024)

Key:
Snail = experiment: Western blot of Snail protein; assay type: cell-based, human; settings: for effect of chloroquine (CQ) on Snail levels: MP or MOG combined with CQ
Experimental: (§1) Cells were harvested, washed with PBS, and lysed on ice with RIPA buffer containing protease and phophatase inhibitor cocktail (GenDEPOT). After 15 minutes of incubation, the cell lysates were centrifuged at 15,000 rpm at 4° C. for 10 minutes. Protein concentration was measured by Bradford assay (Bio-rad, 500-0006). Equal amounts of total protein were placed on an SDS gel electrophoresis and transferred to a PVDF membrane (Bio-rad). The membrane was blocked with 5% skim milk for 1 hour at room temperature and incubated overnight at 4° C. with primary antibody in a buffer containing 0.1% Tween-20. Subsequently, the membrane was washed three times with Tween-PBS buffer and incubated for 1 hour at room temperature using a secondary antibody diluted in blocking buffer containing 0.1% Tween-20. Subsequently, the membrane was washed three times for 10 minutes each using Tween-TBS. Densitometry of Western blots was measured using ImageJ software.
[…] For autophagy activation, cells were'treated with 2 μM rapamycin (Selleckchem, S1039) for 5 hours. Modulation of intracellular ROS was performed with N-acetyl-cysteine (10 mM) (Sigma, A7250), hydrogen peroxide solution (100 μM to 200 μM) (Sigma, 216763), or CDDO-ME NRF2 activator (50 nM, 100 nM) (Sellckchem, S8078) for 4 to 24 hours. Intercellular calcium signal control was performed for 1 hour using BAPTA-AM (20 μM) (Sigma, A1076) or Calmidazolium Chloride (2.5 μM) (Sigma, C3930). […] For TFEB protein phosphorylation, tacrolimus (1 μM) (Selleckchem, S5003) was treated for 1 hour. […] During siRNA treatment, each siRNA was treated to a concentration of 40 to 50 nM and treated together with Lipofectamine RNAiMax (Thermo Fisher Scientific, 13778150) for transformation, and were used for experiments 48 to 72 hours later. For cDNA treatment, each cDNA was treated to a concentration of 1 to 2 μg in a 6-well plate and treated with Lipofectamine 2000 (Thermo Fisher Scientific, 11668019) for transformation, and were used for experiments 24 hours later.

Intracellular citrate = experiment: Citrate assay; assay type: cell-based, human; settings: HBEC-KL; 8 mM MP or 3 mM MOG in the presence of 50 uM CQ
Experimental: Intracellular citrate levels were calculated in the pmol range using a citrate assay kit (Biovision, K655). After sonication, proteins were removed from the supernatant using a 10 kDa molecular weight cutoff spin column, followed by incubation at room temperature for 30 minutes with 50 μl citrate reaction mixture comprising enzyme mixture, developer and citrate probe. Citrate content was measured by reading OD 570 nm with an Envision Multimode Plate Reader (PerkinElmer 2105-0010, Waltham, MA, USA). After correcting the background in all readings, the value of each sample was determined and normalized to the protein concentration of each sample.

A549-luc cells = experiment: A549-luc tail vein injection metastasis model; assay type: in vivo; settings: nude mice; 25 mg/kg, 100 mg/kg, qd, p.o. 28 consecutive days; compared to the vehicle-treated group
Experimental: FIG. 13E illustrates role of STO-609 on cancer metastasis in an A549-luc tail vein injection model. After intravenous injection of A549-luc cells into nude mice, vehicle or STO-609 (25 mg/kg and 100 mg/kg qd) was injected for 28 days starting one day after the injection. A picture taken of a bioluminescent image when 4 weeks have elapsed after injection is shown (above). Analysis results of the total metastasis burden by photonic flux are shown (below). FIG. 13H illustrates the role of BMS303141 on cancer metastasis in an A549-luc tail vein injection model. A549-luc cells were intravenously injected into nude mice, and then vehicle or BMS303141 (100 mg/kg q.d.) was injected for 20 days starting one day after the injection. A bioluminescence image when 3 weeks have elapsed after injection is shown. 7- to 9-week-old BALB/c-nu Sic mice were obtained from SLC, Inc. (Shizuoka, Japan) and used, A549-luc cells (#JCRB1414) or SNAI1 shRNA-mediated knockdown A549-luc cells were injected at 3-4.5×10^6 cells through the tail vein of mice. After 3 to 4 weeks, metastasis was monitored by bioluminescence imaging analysis. More specifically, after injecting D-luciferin (75 mg/kg) (PerkinElmer, 122799) into the abdominal cavity of the mouse, images were obtained using an IVIS imaging system (IVIS 200, PerkinElmer, Waltham, MA, USA) in the supine position. Lung tissue was obtained for histopathological analysis. Images were analyzed using commercially available software (ImageScope; Aperio Technologies). In the STO-609 efficacy test, STO-609 (25 mg, 100 mg/kg/day) was orally administered to mice on the day of injection. In the BMS303141 efficacy test, BMS303141 (100 mg/kg/day) was orally administered to mice on the day of injection.

LC3 = experiment: Autophagic flux (LC3 Western blot, mRFP-GFP-LC3 lysosomal delivery assay); assay type: cell-based, human; settings: HBEC-KL cell line; NAC or 50 uM STO-609, 24 hours
Experimental: as §1, with “Representative GFP-LC3, RFP-LC3 and overlapping images are shown. In addition, red puncta (mRFP+/GFP−) and yellow puncta (mRFP+/GFP+) per cell were quantified and graphed (n=15 cells/treatment). Cells” for “Cells”

acetylated Snail = experiment: Immunoprecipitation-immunoblot of acetylated Snail; assay type: cell-based, human; settings: A549 luciferase cell line in vitro; 50 uM STO-609, 24 hours
Experimental: (§2) Cell lysates (1 μg protein) were incubated overnight at 4° C. on anti-FLAG® M2 Affinity Gel (Sigma, A2220) or anti-acetyl-lysine antibody coated agarose (ImmuneChem Pharmaceuticals, ICP0388). The immunoprecipitate was then washed three times in IP buffer, and the immunoprecipitated complex was dissolved and separated by boiling in IP buffer for 5 minutes.
For SDS-PAGE electrophoresis, the immunoprecipitated complex was transferred to a nitrocellulose membrane and the membrane was blocked and then incubated for 1 hour at room temperature with Primary antibody and secondary antibody (VeriBlot for IP Detection Reagent (HRP) (Abcam, #ab131366), and anti-mouse IgG tor IP (HRP) (Abeam, #ab131368)).
After washing 3 times, the membrane was incubated with the secondary antibody.

TFEB = experiment: Western blot / immunoprecipitation-immunoblot of TFEB (acetylated, phosphorylated, total); assay type: cell-based, human; settings: HBEC-KL; 50 uM STO-609, 24 hours
Experimental: FIG. 11J illustrates a diagram of immunoblot results of the […] a control (left), and the immunoprecipitation-immunoblot result of TFEB acetylated HBEC-KL cells under the same conditions (right) is also shown,
as §1
as §2, with “For immunoprecipitation, equal amounts of lysate and Co-IP buffer (40 mM HEPES, pH 7.4, 120 mM NaCl, 2 mM EDTA, 0.3% CHAPS (Sigma, 10810118001), 10 mM pyrophosphate (Sigma, 221368), 10 mM glycerophosphate (Sigma, G9422), 50 mM NaF, phosphatase and protease inhibitor mixture) were mixed. Cell” for “Cell”

Row | Compound | expression level of Snail decreased by siIDH1 (Snail; HBEC-KL, 3 mM MOG) | Snail levels when ACLY was reduced (Snail; HBEC-KL, MOG supplemented condition, ACLY siRNA) | effect of chloroquine (CQ) on Snail levels (Snail; HBEC-KL) | effect of chloroquine (CQ) on citrate levels (Intracellular citrate) | Snail expression level decreased by siCS (Snail; HBEC-KL, 8 mM MP) | total metastasis burden (photonic flux) (A549-luc cells) | total number of lung metastases (A549-luc cells) | autophagic flux (LC3) | Snail protein (Snail; HBEC-KL cell line, STO-609) | abnormal increase in Snail expression level by AMG-510 (Snail; KL cell lines, 1 uM AMG-510 and 50 uM STO-609) | acetylated Snail (acetylated Snail) | acetylated TFEB (TFEB)
1 | COC(=O)CCC(=O)C(=O)OC [MOG, dimethyl-2-oxoglutarate] | restored | did not recover | completely reverses | completely reverses | – | – | – | – | – | – | – | –
2 | COC(=O)C(C)=O [MP, methyl pyruvate] | – | – | completely reverses | completely reverses | not increased | – | – | – | – | – | – | –
3 | O=C(O)c1ccc2c3c1cccc3c(=O)n1c3ccccc3nc21 [STO-609] | – | – | – | – | – | reduced | reduced | decreased | reduction | reduced | reduced | reduces
